The record followed here is patent publication US20250188084A1, “COMPOUNDS AND METHODS FOR MODULATING CDK9 ACTIVITY” (KRONOS BIO, INC., priority 2020, published 2025).

The experiment addresses T1, CDK9 (Homo sapiens, UniProt P50750).
T1 construct: NCIH211 cells with endogenously tagged N-terminal CDK9-HiBit; endogenous in cells; host or cells: NCIH211 cells (endogenous CDK9 locus tagged with HiBit)
Put plainly: CDK9 degradation by HiBit assay, NCIH211 cells. Format: cell-based. The note with it: NCIH211 cells with endogenously tagged N-terminal CDK9-HiBit, 24 hours incubation; read-out: HiBit-NCIH211.2 DC50. On the procedure: Exemplary compounds of the invention were tested for degradation of CDK9. The compounds were tested in 10-dose DC50 duplicate mode with a 3-fold serial dilution starting at 10 μM by HiBit assay (Promega, Inc) as a direct measurement of CDK9 presence, with incubation time of 24 hours using either NCIH211 cells with endogenously tagged N-terminal CDK9-HiBit or NCIH1048 cells with endogenously tagged N-terminal CDK9-HiBit. A control compound (THAL-SNS-032, CAS 2139287-33-3) was tested in 10-dose DC50 mode with 3-fold serial dilution starting at 10 μM. Data was normalized to positive (medium only) and negative (cells with no treatment) controls and curve fits were analyzed with CDK9 as % response vs. log [compound concentration] using a 4-parameter logistic model by GraphPad software. For Table 2: A is <100, B is <1000 C is <10,000, D is >10,000 and ND is Not Determined.
On the technique in general: HiBiT is a short tag that completes a luciferase, so light tracks the accessible tagged protein.

Where only a bound is given, the exact number is not on record here.

By DC50 is commonly meant the midpoint of the concentration-degradation curve.

T1 sequence (P50750 whole entry): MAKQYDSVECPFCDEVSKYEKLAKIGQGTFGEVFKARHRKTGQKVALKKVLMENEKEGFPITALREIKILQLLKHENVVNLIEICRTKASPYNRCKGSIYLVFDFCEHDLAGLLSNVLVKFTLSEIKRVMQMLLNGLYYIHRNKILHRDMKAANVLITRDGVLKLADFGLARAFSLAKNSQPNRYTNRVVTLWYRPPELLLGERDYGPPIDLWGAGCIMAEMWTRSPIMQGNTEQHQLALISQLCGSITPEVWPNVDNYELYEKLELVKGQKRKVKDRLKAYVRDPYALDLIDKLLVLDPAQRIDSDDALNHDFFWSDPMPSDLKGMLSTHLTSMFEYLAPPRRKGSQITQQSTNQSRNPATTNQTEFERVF
T1 sequence (O60563 whole entry partner): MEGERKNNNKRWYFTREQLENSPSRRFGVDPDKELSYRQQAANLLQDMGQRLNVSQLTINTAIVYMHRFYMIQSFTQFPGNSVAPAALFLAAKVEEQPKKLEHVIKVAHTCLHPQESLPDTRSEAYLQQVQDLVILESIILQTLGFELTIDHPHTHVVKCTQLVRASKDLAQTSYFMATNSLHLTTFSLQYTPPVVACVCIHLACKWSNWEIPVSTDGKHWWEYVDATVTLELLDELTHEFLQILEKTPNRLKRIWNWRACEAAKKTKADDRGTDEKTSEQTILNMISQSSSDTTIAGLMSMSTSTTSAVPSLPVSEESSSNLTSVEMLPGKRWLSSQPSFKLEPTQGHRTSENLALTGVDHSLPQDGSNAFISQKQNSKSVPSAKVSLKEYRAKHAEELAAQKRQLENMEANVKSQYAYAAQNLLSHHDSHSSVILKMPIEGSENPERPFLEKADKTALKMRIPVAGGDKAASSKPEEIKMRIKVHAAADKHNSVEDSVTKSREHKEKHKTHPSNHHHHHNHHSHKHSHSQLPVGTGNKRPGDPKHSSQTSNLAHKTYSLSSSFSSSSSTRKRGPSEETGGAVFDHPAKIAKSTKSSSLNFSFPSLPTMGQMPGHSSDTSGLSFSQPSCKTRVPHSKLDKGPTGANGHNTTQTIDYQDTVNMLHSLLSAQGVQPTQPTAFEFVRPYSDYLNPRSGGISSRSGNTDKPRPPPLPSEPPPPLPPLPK

On to `CCC(CC)c1cc(N[C@H]2CC[C@H](NC(=O)COCCOCCNC(=O)COc3cccc4c3C(=O)N(C3CCC(=O)NC3=O)C4=O)C2)n2nccc2n1` (stereo partly drawn) [Compound 1.0, 2-[2-[2-[[2-[2-(2,6-dioxo-3-piperidyl)-1,3-dioxo-isoindolin-4 yl]oxyacetyl]amino]ethoxy]ethoxy]-N-[(1S,3S)-3-[[5-(1-ethylpropyl)pyrazolo[1,5-a]pyrimidin-7-yl]amino]cyclopentyl]acetamide], for which the 50% degradation concentration (DC50) is > 10 µM.
For `CCC(CC)c1cc(N[C@H]2CC[C@H](NC(=O)COCCOCCOCCNC(=O)COc3cccc4c3C(=O)N(C3CCC(=O)NC3=O)C4=O)C2)n2nccc2n1` (stereo partly drawn) [Compound 2.0, 2-[2-[2-[2-[[2-[2-(2,6-dioxo-3-piperidyl)-1,3-dioxo-isoindolin-4-yl]oxyacetyl]amino]ethoxy]ethoxy]ethoxy]-N-[(1S,3S)-3-[[5-(1-ethylpropyl)pyrazolo[1,5-a]pyrimidin-7-yl]amino]cyclopentyl]acetamide], the DC50 is > 10 µM.
For the compound `CCC(CC)c1cc(N[C@H]2CC[C@H](NC(=O)COCCOCCOCCNC(=O)COc3cccc4c3C(=O)N(C3CCC(=O)NC3=O)C4=O)C2)n2ncc(Cl)c2n1` (stereo partly drawn) [Compound 3.0, N-[(1S,3S)-3-[[3-chloro-5-(1-ethylpropyl)pyrazolo[1,5-a]pyrimidin-7-yl]amino]cyclopentyl]-2-[2-[2-[2-[[2-[2-(2,6-dioxo-3-piperidyl)-1,3-dioxo-isoindolin-4-yl]oxyacetyl]amino]ethoxy]ethoxy]ethoxy]acetamide], the DC50 was > 10 µM.
Under `CCC(CC)c1cc(N[C@H]2CC[C@H](NC(=O)COCCOCCNC(=O)COc3cccc4c3C(=O)N(C3CCC(=O)NC3=O)C4=O)C2)n2ncc(Cl)c2n1` (stereo partly drawn) [Compound 4.0, N-[(1S,3S)-3-[[3-chloro-5-(1-ethylpropyl)pyrazolo[1,5-a]pyrimi-din-7-yl]amino]cyclopentyl]-2-[2-[2-[[2-[2-(2,6-dioxo-3-piperidyl)-1,3-dioxo-isoindolin-4-yl]oxyacetyl]amino]ethoxy]ethoxy]acetamide] stands > 10 µM.
The same measure for `CCC(CC)c1cc(N[C@H]2CC[C@H](NCCOCCOCCOCCNc3cccc4c3C(=O)N(C3CCC(=O)NC3=O)C4=O)C2)n2nccc2n1` (stereo partly drawn) [Compound 7.0, 2-(2,6-dioxo-3-piperidyl)-4-[2-[2-[2-[2-[[(1S,3S)-3-[[5-(1-ethylpropyl)pyrazolo[1,5-a]pyrimidin-7-yl]amino]cyclopentyl]amino]ethoxy]ethoxy]ethoxy]ethylamino]isoindoline-1,3-dione]: > 10 µM; for `CCC(CC)c1cc(N[C@H]2CC[C@H](NCCOCCOCCOCCOCCNc3cccc4c3C(=O)N(C3CCC(=O)NC3=O)C4=O)C2)n2nccc2n1` (stereo partly drawn) [Compound 8.0, 2-(2,6-dioxo-3-piperidyl)-4-[2-[2-[2-[2-[2-[[(1S,3S)-3-[[5-(1-ethylpropyl)pyrazolo[1,5-a]pyrimidin-7-yl]amino]cyclopentyl]amino]ethoxy]ethoxy]ethoxy]ethoxy]ethylamino]isoindoline-1,3-dione]: > 10 µM.
The same measure for `CCC(CC)c1cc(N[C@H]2CC[C@H](NCc3cn(CCOCCOCCNc4cccc5c4C(=O)N(C4CCC(=O)NC4=O)C5=O)nn3)C2)n2nccc2n1` (stereo partly drawn) [Compound 9.0, 2-(2,6-dioxo-3-piperidyl)-4-[2-[2-[2-[4-[[[(1S,3S)-3-[[5-(1-ethylpropyl)pyrazolo[1,5-a]pyrimidin-7-yl]amino]cyclopentyl]amino]methyl]triazol-1-yl]ethoxy]ethoxy]ethylamino]isoindoline-1,3-dione]: < 10 µM; for `CCC(CC)c1cc(N[C@H]2CC[C@H](NCc3cn(CCOCCOCCOCCNc4cccc5c4C(=O)N(C4CCC(=O)NC4=O)C5=O)nn3)C2)n2nccc2n1` (stereo partly drawn) [Compound 10.0, 2-(2,6-dioxo-3-piperidyl)-4-[2-[2-[2-[2-[4-[[[(1S,3S)-3-[[5-(1-ethylpropyl)pyrazolo[1,5-a]pyrimidin-7-yl]amino]cyclopentyl]amino]methyl]triazol-1-yl]ethoxy]ethoxy]ethoxy]ethylamino]isoindoline-1,3-dione]: < 10 µM; for `CCC(CC)c1cc(N[C@H]2CC[C@H](NCCOCCOCCOCCNc3cccc4c3C(=O)N(C3CCC(=O)NC3=O)C4=O)C2)n2ncc(Cl)c2n1` (stereo partly drawn) [Compound 11.0, 2-(2,6-dioxo-3-piperidyl)-4-[2-[2-[2-[2-[[(1S,3S)-3-[[3-chloro-5-(1-ethylpropyl)pyrazolo[1,5-a]pyrimidin-7-yl]amino]cyclopentyl]amino]ethoxy]ethoxy]ethoxy]ethylamino]isoindoline-1,3-dione]: < 10 µM.
Consider `CCC(CC)c1cc(N[C@H]2CC[C@H](NCCOCCOCCOCCn3cc(CNc4cccc5c4C(=O)N(C4CCC(=O)NC4=O)C5=O)nn3)C2)n2nccc2n1` (stereo partly drawn) [Compound 12.0, 2-(2,6-dioxo-3-piperidyl)-4-[[1-[2-[2-[2-[2-[[(1S,3S)-3-[[5-(1-ethylpropyl)pyrazolo[1,5-a]pyrimidin-7-yl]amino]cyclopentyl]amino]ethoxy]ethoxy]ethoxy]ethyl]triazol-4-yl]methylamino]isoindoline-1,3-dione], for which the DC50 is > 10 µM.
Under `CCC(CC)c1cc(N[C@H]2CC[C@H](NCCOCCOCCOCCOCCNc3cccc4c3C(=O)N(C3CCC(=O)NC3=O)C4=O)C2)n2ncc(Cl)c2n1` (stereo partly drawn) [Compound 13.0, 4-[2-[2-[2-[2-[2-[[(1S,3S)-3-[[3-chloro-5-(1-ethylpropyl)pyrazolo[1,5-a]pyrimidin-7-yl]amino]cyclopentyl]amino]ethoxy]ethoxy]ethoxy]ethoxy]ethylamino]-2-(2,6-dioxo-3-piperidyl)isoindoline-1,3-dione] stands < 10 µM; under `CCC(CC)c1cc(N[C@H]2CC[C@H](NCCOCCOCCn3cc(COCCOCC(=O)N[C@H](C(=O)N4C[C@H](O)C[C@H]4C(=O)NCc4ccc(-c5scnc5C)cc4)C(C)(C)C)nn3)C2)n2nccc2n1` [Compound 14.0, (2S,4R)-4-hydroxy-N-[[4-(4-methylthiazol-5-yl)phenyl]methyl]-1-[(2S)-3,3-dimethyl-2-[[2-[2-[[1-[2-[2-[2-[[(1S,3S)-3-[[5-(1-ethylpropyl)pyrazolo[1,5-a]pyrimidin-7-yl]amino]cyclopentyl]amino]ethoxy]ethoxy]ethyl]triazol-4-yl]methoxy]ethoxy]acetyl]amino]butanoyl]pyrrolidine-2-carboxamide], > 10 µM.
Under `CCC(CC)c1cc(N[C@H]2CC[C@H](NCCOCCOCCn3cc(CNc4cccc5c4C(=O)N(C4CCC(=O)NC4=O)C5=O)nn3)C2)n2ncc(Cl)c2n1` (stereo partly drawn) [Compound 15.0] stands < 10 µM.
In the case of `CCC(CC)c1cc(N[C@H]2CC[C@H](NCCOCCOCCOCCn3cc(CNc4cccc5c4C(=O)N(C4CCC(=O)NC4=O)C5=O)nn3)C2)n2ncc(Cl)c2n1` (stereo partly drawn) [Compound 16.0], the DC50 is > 10 µM.
For the compound `CCC(CC)c1cc(N[C@H]2CC[C@H](NCC(C)N3CCN(CCNc4cccc5c4C(=O)N(C4CCC(=O)NC4=O)C5=O)CC3)C2)n2nccc2n1` (stereo partly drawn) [Compound 17.0, 2-(2,6-dioxo-3-piperidyl)-4-[2-[4-[2-[[(1S,3S)-3-[[5-(1-ethylpropyl)pyrazolo[1,5-a]pyrimidin-7-yl]amino]cyclopentyl]amino]-1-methyl-ethyl]piperazin-1-yl]ethylamino]isoindoline-1,3-dione], the DC50 was < 10 µM.
